Reference: USRE46511E1, “Fused pyrimidine derivatives for inhibition of tyrosine kinase activity” (HANMI SCIENCE CO., LTD., priority 2010, dated 2017)

Experiments:
[1] = tested on: HCC827 (EGFR DelE746_A750); experiment: Inhibition test for growth of cancer cell expressing EGFR (SRB), HCC827; format: cell-based; conditions: Homo sapiens, HCC827, 72 h, HCC827 cells, 72 hours, SRB; read-out: GI50 HCC827 EGFR DelE746_A750;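 note: cells in 96-well plates exposed to tenfold serial dilutions from 100 µM, fixed with trichloroacetic acid, SRB-stained, absorbance read at 540 nm, DMSO under 1%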
Method: (§1) A431 cell line was incubated in a high-glucose DMEM (Dulbecco's Modified Eagle's Medium) supplemented with 10% fetal bovine serum (FBS) and 1% penicillin/streptomycin (Gibco BRL), and HCC827 and NCI-H1975 cell lines were incubated in an RPMI medium supplemented with 10% FBS, 1% penicillin/streptomycin and 1% sodium pyruvate.
(§2) The cancer cell lines stored in a liquid nitrogen tank were each quickly thawed at 37° C., and centrifuged to remove the medium. The resulting cell pellet was mixed with a culture medium, incubated in a culture flask at 37° C. under 5% CO2 for 2 to 3 days, and the medium was removed. The remaining cells were washed with DPBS (Dulbecco's Phosphate Buffered Saline) and separated from the flask by using Tripsin-EDTA. […] 100 μl of the diluted cell solution was added to each well of a 96-well plate, and incubated at 37° C. under 5% CO2 for 1 day.
(§3) In case that the test compound was not soluble in DMSO, 1% HCl was added thereto and treated in a 40° C. water bath for 30 mins until a complete dissolution was attained. The DMSO solution containing test compound was diluted with a culture medium to a final concentration of 100 μM, and then diluted 10 times serially to 10^−6 μM (a final concentration of DMSO was less than 1%).
(§4) The medium was removed from each well of the 96-well plate. And then, 100 μl of a test compound solution was added to each well holding the cultured cells, and the plate was incubated at 37° C. under 5% CO2 for 72 hours (except that NCI-H1975 cells were incubated for 48 hours). After removing the medium from the plate, 50 μA of 10% trichloroacetic acid was added to each well, and the plate was kept at 4° C. for 1 hour to fix the cells to the bottom of the plate. The added 10% trichloroacetic acid solution was removed from each well, the plate was dried, 100 μA of an SRB (Sulforhodamine-B) dye solution at a concentration of 0.4% dissolved in 1% acetic acid was added thereto, and the resulting mixture was reacted for 10 mins at room temperature. After removing the dye solution, the plate was washed with water, and well dried. When the dye solution was not effectively removed by water, 1% acetic acid was used. 150 μA of 10 mM trisma base was added to each well, and the absorbance at 540 nm wavelength was determined with a microplate reader.

[2] = tested on: NCI-H1975 (EGFR L858R/T790M); experiment: Inhibition test for growth of cancer cell expressing EGFR (MTS), NCI-H1975; format: cell-based; conditions: Homo sapiens; NCI-H1975 cells, 48 hours, MTS; read-out: GI50 NCI-H1975 EGFR L858R/T790M
Method: as §1, §2, §3, §4

A431 (EGFR WT) = experiment: Inhibition test for growth of cancer cell expressing EGFR (SRB), A431; format: cell-based; conditions: Homo sapiens, A-431; A431 cells, 72 hours, SRB; read-out: GI50 A431 EGFR WT;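 note: cells in 96-well plates exposed to tenfold serial dilutions from 100 µM down to 10^−6 µM, DMSO under 1%, SRB staining read as absorbance at 540 nm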
Method: as §1, §2, §3, §4

BTK = target: T1, BTK (Homo sapiens, UniProt Q06187); experiment: z-lyte kinase assay, BTK; format: biochemical
T1 construct: purchased Invitrogen
T1 sequence (Q06187 whole entry): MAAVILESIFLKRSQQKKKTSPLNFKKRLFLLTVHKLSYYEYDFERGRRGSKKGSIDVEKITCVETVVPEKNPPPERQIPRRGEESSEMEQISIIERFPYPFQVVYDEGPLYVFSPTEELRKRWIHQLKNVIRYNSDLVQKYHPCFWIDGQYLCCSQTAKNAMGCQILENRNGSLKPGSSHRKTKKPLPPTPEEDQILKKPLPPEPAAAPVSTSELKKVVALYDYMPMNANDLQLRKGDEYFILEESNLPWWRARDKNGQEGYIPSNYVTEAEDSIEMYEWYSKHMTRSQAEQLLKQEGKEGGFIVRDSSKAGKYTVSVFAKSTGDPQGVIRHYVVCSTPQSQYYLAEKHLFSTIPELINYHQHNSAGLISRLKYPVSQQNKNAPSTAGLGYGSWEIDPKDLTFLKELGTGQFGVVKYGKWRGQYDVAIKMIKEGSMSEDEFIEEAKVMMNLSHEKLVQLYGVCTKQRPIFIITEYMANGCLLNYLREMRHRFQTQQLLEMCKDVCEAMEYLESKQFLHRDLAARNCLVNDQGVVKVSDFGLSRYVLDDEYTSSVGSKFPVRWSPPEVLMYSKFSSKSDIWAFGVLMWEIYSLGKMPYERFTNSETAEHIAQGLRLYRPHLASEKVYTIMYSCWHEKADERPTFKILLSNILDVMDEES
Procedure, shortened: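 Each kinase was mixed with peptide substrate, compound (dilution series made at 1–0.0001 μM in 4% DMSO) and ATP added from a 5~300 μM solution, then incubated 60 min at RT. After development reagent and stop solution, fluorescence was read at 400 nm excitation/520 nm emission and IC50 calculated.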

BMX = target: T2, BMX (Homo sapiens, UniProt P51813); experiment: z-lyte kinase assay, BMX; format: biochemical
T2 construct: purchased Invitrogen
T2 sequence (P51813 1-675): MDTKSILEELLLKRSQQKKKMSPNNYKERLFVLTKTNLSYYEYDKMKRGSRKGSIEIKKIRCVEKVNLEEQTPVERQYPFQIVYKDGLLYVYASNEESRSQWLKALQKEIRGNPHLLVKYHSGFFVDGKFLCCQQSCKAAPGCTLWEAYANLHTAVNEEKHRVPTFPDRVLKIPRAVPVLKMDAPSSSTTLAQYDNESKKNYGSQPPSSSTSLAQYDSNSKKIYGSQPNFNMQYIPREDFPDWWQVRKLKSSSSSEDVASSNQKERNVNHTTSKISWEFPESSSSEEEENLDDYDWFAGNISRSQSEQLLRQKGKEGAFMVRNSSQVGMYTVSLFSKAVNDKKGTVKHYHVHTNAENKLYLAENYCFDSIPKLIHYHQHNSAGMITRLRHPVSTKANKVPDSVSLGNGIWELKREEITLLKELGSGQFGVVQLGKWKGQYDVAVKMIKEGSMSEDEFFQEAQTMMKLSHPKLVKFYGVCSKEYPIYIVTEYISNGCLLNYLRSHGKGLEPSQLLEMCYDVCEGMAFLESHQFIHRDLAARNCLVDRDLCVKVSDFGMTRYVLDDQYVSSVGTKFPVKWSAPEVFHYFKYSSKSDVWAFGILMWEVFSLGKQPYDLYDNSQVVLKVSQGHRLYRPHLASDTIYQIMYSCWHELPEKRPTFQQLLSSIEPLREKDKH

ITK = target: T3, ITK (Homo sapiens, UniProt Q08881); experiment: z-lyte kinase assay, ITK; format: biochemical
T3 construct: purchased Invitrogen
T3 sequence (Q08881 1-620): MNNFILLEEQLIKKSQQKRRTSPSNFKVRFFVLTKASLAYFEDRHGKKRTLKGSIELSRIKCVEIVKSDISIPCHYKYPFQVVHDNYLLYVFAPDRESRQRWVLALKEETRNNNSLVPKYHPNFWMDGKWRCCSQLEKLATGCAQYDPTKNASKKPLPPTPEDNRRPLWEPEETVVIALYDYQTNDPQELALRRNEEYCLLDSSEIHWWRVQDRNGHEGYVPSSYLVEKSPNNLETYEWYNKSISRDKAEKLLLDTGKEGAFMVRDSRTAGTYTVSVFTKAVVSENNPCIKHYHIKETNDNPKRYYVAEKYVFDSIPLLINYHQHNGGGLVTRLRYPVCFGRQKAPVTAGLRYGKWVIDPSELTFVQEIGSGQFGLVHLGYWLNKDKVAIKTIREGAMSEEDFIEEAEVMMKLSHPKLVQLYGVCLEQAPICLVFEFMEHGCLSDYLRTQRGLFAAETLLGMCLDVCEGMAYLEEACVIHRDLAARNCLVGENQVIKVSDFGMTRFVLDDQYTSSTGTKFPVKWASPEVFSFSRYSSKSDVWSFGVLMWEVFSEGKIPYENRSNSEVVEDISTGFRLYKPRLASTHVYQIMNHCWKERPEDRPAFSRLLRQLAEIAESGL

RLK = target: T4, RLK (Homo sapiens, UniProt P42681); experiment: z-lyte kinase assay, RLK; format: biochemical
T4 construct: purchased Invitrogen
T4 sequence (P42681 1-527): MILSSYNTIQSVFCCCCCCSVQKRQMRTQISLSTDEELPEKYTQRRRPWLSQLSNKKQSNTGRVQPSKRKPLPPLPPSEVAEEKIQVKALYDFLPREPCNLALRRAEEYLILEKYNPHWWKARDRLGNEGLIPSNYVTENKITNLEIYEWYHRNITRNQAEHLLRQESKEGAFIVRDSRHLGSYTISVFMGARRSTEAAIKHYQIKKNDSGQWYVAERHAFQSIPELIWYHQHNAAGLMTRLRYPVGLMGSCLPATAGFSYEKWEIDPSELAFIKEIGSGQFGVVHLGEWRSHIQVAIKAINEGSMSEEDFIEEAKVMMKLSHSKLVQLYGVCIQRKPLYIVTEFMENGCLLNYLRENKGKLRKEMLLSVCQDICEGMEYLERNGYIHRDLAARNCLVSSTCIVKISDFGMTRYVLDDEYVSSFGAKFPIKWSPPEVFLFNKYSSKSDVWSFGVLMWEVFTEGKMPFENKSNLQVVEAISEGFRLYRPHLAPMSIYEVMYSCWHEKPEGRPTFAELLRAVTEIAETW

## C=CC(=O)Nc1cccc(Oc2nc(Nc3ccc(N4CCN(C)CC4)cc3)nc3ccsc23)c1 [Example 1, N-(3-(2-(4-(4-methylpiperazin-1-yl)phenylamino)thieno[3,2-d]pyrimidine-4-yloxy)phenyl)acrylamide]
[1]
  GI50: < 50 nM
[2]
  GI50: < 50 nM
A431 (EGFR WT)
  GI50: > 1000 nM
BTK
  IC50: ≤ 50 nM
BMX
  IC50: ≤ 50 nM
ITK
  IC50: 50 to 100 nM
RLK
  IC50: ≤ 50 nM
